# Results published in patent US9850216B2 (H. LEE MOFFITT CANCER CENTER AND RESEARCH INSTITUTE, INC., priority 2013, dated 2017).
# Several values for one entry are separate records, joined by “and”; a condition that tells them apart may be missing. Identical values can stand only once. Counter-ions that a name gives are not always drawn. Like-named read-outs stand apart in the source and are kept apart here.
# Tests used:
# prostate xenograft tumor = settings: literature; cited from earlier work
# ACK1 [1] = target: T1, ACK1 (Homo sapiens, UniProt Q07912); test: EGF-induced ACK1 autophosphorylation (Tyr284) in LAPC4 cells, immunoblotting; assay type: cell-based; parameters: endogenous in cells; host or cells: LAPC4; settings: pretreated with compound, 5 μM (FIG. 8(a))
# T1 sequence (Q07912 whole entry): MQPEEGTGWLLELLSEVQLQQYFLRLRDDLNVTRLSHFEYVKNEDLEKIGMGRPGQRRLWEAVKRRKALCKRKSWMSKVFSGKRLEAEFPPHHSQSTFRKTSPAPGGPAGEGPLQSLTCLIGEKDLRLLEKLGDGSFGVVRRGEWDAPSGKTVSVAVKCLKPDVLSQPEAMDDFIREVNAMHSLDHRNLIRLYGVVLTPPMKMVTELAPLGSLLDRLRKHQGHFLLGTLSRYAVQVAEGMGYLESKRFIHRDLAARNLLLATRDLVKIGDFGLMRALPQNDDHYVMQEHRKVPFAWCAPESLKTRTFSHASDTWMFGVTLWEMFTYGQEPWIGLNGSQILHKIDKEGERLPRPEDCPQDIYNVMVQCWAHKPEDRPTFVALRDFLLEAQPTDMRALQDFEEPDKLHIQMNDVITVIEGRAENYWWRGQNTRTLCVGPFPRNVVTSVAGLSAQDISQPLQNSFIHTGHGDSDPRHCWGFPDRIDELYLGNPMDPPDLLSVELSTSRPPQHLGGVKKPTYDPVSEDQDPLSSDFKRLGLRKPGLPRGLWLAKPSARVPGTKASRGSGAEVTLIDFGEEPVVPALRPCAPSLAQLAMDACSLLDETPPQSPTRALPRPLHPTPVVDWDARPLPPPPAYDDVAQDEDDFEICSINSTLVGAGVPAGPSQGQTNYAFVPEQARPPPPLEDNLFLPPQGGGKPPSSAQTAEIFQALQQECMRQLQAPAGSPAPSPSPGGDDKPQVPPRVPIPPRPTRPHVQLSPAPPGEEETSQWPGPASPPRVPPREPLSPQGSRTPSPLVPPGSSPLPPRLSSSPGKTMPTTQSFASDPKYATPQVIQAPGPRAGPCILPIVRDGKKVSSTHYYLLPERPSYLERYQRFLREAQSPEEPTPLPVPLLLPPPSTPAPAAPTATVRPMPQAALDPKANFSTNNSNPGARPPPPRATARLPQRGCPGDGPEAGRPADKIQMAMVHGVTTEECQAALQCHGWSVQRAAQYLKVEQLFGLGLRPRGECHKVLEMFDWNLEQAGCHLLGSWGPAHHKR
# Description: Inhibition of: LNCaP (FIG. 8(b)); LAPC4 (FIG. 8(c)), and VCaP (FIG. 8(d)) cell growth by AIM-100, (R)-9b, and (S)-9b. Inhibition of ACK1 autophosphorylation in LAPC4 cells treated 5 μM with (R)-9b and (S)-9b (FIG. 8(a)).
# ACK1 is a tyrosine kinase that auto-phosphorylates at Tyr284, which is indicative of its kinase activation. To determine inhibitory potential of the compounds from library 9, prostate cancer derived cell line LAPC4 was treated with either EGF ligand alone or added to cells pretreated with the compounds, and equal amounts of cell lysates were subjected to immunoblotting. EGF (epidermal growth factor) ligand causes rapid activation of EGFR (epidermal growth factor receptor), which in turn lead to activation of the ACK1 kinase (FIG. 8(a), lane 2, top panel). […] Actin was used as control, which indicates equal loading of cell lysates (FIG. 8(a), lower panel).
# AR [2] = test: AR protein levels in androgen-deprived prostate cancer cells, immunoblotting; assay type: cell-based, human; settings: immunoblotting (FIG. 2)
# Description: Transcriptional regulation of the AR gene itself is a paradigm that merits thorough investigation. […] Whether AR utilizes ACK1 to facilitate its transcriptional co-activator function is not known. […] Cells were also treated with ACK1-specific small molecule inhibitors, DZ1-067 or AIM-100.
# VCaP cells = test: Cell proliferation, trypan blue exclusion, VCaP; assay type: cell-based, human; settings: 36 hrs, viable cells by trypan blue exclusion, read-out: IC50, inhibition of cell growth in VCaP cells
# Description: (§1) The number of viable cells was counted by trypan blue exclusion assay.
# (§2) Three distinct human prostate cancer derived cell lines, LNCaP, LAPC4 and VCaP were either DMSO treated or treated with 1, 2.5, 5, 7.5 and 10 μM of inhibitors, AIM-100, (R)-9b and (S)-9b for 36 hrs and the number of viable cells were counted by trypan blue exclusion assay.
# (§3) The ability of the ACK1 inhibitors to suppress proliferation of prostate cancer cell lines were also assessed. AIM-100, an ACK1 inhibitor, originally screened by Amgen was used as a control. […] Overall, it appears that ACK1 is needed for androgen-independent growth of prostate cancer cells.
# LNCaP cells = test: Cell proliferation, trypan blue exclusion, LNCaP; assay type: cell-based, human; settings: 36 hrs, viable cells by trypan blue exclusion, read-out: IC50, inhibition of cell growth in LNCaP cells
# Description: as §1, §2, §3
# PSA = PSA mRNA by real time PCR in androgen-deprived prostate cancer cells; assay type: cell-based, human; settings: overnight treatment (FIG. 3c, d)
# Excerpt: Total RNA was isolated followed by qPCR with AR primers. […] Total RNA was isolated followed by qPCR with PSA primers.
# AR [3] = test: AR mRNA by real time PCR in androgen-deprived prostate cancer cells; assay type: cell-based, human; settings: overnight treatment (FIG. 3a, b)
# Excerpt: Total RNA was isolated followed by qPCR with AR primers. VCaP, *p=0.022; LNCaP, *p=0.042, **p=0.047. […] Total RNA was isolated followed by qPCR with PSA primers.
# [4] = system: cell line which is dependent upon ACK1; settings: literature; read-out: IC50, growth of a cell line dependent upon ACK1; cited from earlier work
# [5] = attributed to oxidation of dithiolane ring and NMe2; literature; cited from earlier work
# ACK1 [6] = target: T1, ACK1; settings: literature; read-out: IC50, inhibition of ACK1 autophosphorylation in intact cells; cited from earlier work
# LAPC4 cells = test: Cell growth, LAPC4; assay type: cell-based, human
# Excerpt: Selected compounds from the library 9 were chosen to evaluate the effects of ACK1 inhibition in LAPC4 human prostate cancer cells with inhibition of cell growth as a read out. […] Based on the findings from cell culture data, enantiomers of 9b were synthesized to understand the ACK1 inhibitory activities of individual stereoisomers. […] The synthesis of (R)-9b and (S)-9b are shown in the Scheme 4 and other examples of enantiomerically pure compounds (not reported here) were also synthesized using the protocols in the Scheme 4.
# as §2
# ACK1 [7] = target: T1, ACK1; test: ACK1 ELISA: phosphorylation of AKT-derived peptide; assay type: biochemical
# ACK1 [8] = target: T1, ACK1; test: 32P Hotspot assay (Reaction Biology), ACK1 IC50; assay type: biochemical
# Description: (§4) 8 compounds were tested against […], ACK1, Src and ALK in various combinations. […] Reactions were carried out at 10 μM ATP.
# pY88-H4 = test: Endogenous H4 Y88-phosphorylation in LNCaP cells; assay type: cell-based, human; settings: 16 hrs (FIG. 5b)
# Description: In FIG. 5(a), equimolar amounts of purified ACK1 and H4 proteins were incubated in the presence of DZ1-067 (100 nM) and reaction subjected to immunoblotting with pY88-H4 antibodies. […] The nuclear lysates were immunoprecipitated with pY88-H4 antibodies followed by immunoblotting with H4. Lower panel is input lysate.
# ALK = ALK (Homo sapiens, UniProt Q9UM73); test: Kinase IC50 profiling, ALK; assay type: biochemical; settings: Table 4; 10-dose; 10 μM ATP; read-out: Compound IC50 (M), ALK
# ALK, sequence (Q9UM73 19-1620): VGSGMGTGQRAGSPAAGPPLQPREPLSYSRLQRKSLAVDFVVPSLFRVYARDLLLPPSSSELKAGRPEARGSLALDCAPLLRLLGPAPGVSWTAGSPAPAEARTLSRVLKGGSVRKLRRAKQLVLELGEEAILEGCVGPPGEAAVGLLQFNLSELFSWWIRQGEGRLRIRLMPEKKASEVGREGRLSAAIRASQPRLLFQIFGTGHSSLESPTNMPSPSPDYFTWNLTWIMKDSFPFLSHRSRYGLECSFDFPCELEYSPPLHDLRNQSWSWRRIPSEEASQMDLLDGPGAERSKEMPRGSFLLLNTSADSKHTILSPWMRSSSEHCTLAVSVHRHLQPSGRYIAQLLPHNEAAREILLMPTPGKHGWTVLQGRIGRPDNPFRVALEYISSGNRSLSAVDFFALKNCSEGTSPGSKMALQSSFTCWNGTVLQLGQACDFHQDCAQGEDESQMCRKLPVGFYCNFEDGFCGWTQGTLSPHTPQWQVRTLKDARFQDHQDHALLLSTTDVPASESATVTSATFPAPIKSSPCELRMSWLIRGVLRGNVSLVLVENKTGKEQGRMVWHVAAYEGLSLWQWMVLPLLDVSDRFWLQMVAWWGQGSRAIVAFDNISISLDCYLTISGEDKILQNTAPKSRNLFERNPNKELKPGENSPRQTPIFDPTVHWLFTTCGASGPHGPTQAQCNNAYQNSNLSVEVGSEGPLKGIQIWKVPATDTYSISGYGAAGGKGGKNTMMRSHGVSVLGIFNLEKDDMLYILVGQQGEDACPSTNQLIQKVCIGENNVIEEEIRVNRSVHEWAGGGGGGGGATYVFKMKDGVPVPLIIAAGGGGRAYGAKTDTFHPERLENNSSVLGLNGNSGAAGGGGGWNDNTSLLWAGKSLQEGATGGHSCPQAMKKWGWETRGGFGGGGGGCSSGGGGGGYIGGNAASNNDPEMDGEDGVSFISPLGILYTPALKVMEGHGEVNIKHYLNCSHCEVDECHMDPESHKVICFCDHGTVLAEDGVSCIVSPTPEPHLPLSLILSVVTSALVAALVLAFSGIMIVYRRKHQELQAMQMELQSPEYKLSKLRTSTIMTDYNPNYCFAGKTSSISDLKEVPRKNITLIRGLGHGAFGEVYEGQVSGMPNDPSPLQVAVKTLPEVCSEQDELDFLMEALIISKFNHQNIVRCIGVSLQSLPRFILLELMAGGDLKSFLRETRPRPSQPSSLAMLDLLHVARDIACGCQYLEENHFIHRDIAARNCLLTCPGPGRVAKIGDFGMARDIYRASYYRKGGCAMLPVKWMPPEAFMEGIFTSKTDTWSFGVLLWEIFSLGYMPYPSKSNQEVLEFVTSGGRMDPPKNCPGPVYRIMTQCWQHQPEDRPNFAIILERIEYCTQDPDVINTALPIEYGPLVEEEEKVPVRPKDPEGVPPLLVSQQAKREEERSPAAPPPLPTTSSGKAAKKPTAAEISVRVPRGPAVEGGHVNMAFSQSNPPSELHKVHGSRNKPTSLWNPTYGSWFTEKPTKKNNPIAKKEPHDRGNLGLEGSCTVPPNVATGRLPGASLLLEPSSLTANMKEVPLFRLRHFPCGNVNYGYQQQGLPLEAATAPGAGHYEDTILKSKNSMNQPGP
# Description: as §4
# [9] = metastatic CRPC; literature; cited from earlier work
# [10] = 10 μM, Table 2, library 9, read-out: % Inhibition @ 10 μM (ELISA)
# [11] = Table 1, unit inferred, (RB) = Reaction Biology, replicates listed, read-out: IC50
# [12] = 10 μM, Table 1, replicate values listed
# [13] = 10 μM, Table 1, replicate values listed, read-out: % Inhibition at 10 μM (ELISA)
smiles,measurement,setting,value
c1ccc(-c2oc3ncnc(NC[C@@H]4CCCO4)c3c2-c2ccccc2)cc1 [AIM-100],castration and radioresistant prostate xenograft tumor growth,prostate xenograft tumor,inhibits
same,ACK1 activation (autophosphorylation) in EGF-treated LAPC4 cells,ACK1 [1],significant reduction in ACK1 activation
same,AR protein levels,AR [2],concomitant decrease in AR protein levels
same,IC50,VCaP cells,4000 nM
same,IC50,LNCaP cells,7000 nM
CC(O)(CS(=O)(=O)c1ccc(F)cc1)C(=O)Nc1ccc(C#N)c(C(F)(F)F)c1 (centres unmarked) [Casodex],PSA mRNA levels,PSA,significantly suppressed PSA mRNA levels
same,AR mRNA levels,AR [3],no significant change
CN(C)CCOc1ccc(-c2oc3ncnc(NCC4SCCS4)c3c2-c2ccccc2)cc1 [Compound 1c],IC50,[4],5 nM
same,pharmacokinetic properties,[5],poor pharmacokinetic properties
COC(C)(C)CCn1nc(Nc2c(C)cccc2C)c2cnc(Nc3ccccc3)nc21 [Compound 2],IC50,ACK1 [6],20 nM
CN1CCN(c2ccc(Nc3ncc(Cl)c(NCC4CCCO4)n3)cc2)CC1 (centres unmarked) [Compound 9b],"cellular potency, ACK1 inhibition in LAPC4 cells with cell growth as read out",LAPC4 cells,promising ACK1 inhibitory activities in cellular assays
same,inhibition at 10 µM,ACK1 [7]; [10],90.5 ± 0.7%
O=C(Nc1c(F)cccc1Cl)c1cnc(Nc2ccc(N3CCNCC3)cc2)nc1NCC1CCCO1 (centres unmarked) [Compound 9m],"cellular potency, ACK1 inhibition in LAPC4 cells with cell growth as read out",LAPC4 cells,did not display the expected cellular potency
same,inhibition at 10 µM,"ACK1 [7]; read-out: % Inhibition @ 10 μM (ELISA), 10 μM, Table 2, library 9",89.5 ± 2.1%
O=C(Nc1c(F)cccc1Cl)c1cnc(Nc2ccc(N3CCOCC3)cc2)nc1NCC1CCCO1 (centres unmarked) [Compound 9n],"cellular potency, ACK1 inhibition in LAPC4 cells with cell growth as read out",LAPC4 cells,did not display the expected cellular potency
same,IC50,"ACK1 [8]; Table 2, read-out: IC50 (32P Hotspot assay)",4.77e-08 M
same,inhibition at 10 µM,ACK1 [7]; [10],82 ± 7.7%
C[C@]12CCC(=O)C[C@@H]1CC[C@@H]1[C@@H]2CC[C@]2(C)[C@@H](O)CC[C@@H]12 [DHT],AR protein levels,AR [2],increased AR levels
same,AR mRNA levels,AR [3],no significant change
same,endogenous pY88-phosphorylation of H4 in LNCaP cells,pY88-H4,unaffected
"CN1CCN(c2ccc(Nc3ncc(Cl)c(NC[C@@H]4CCCO4)n3)cc2)CC1 [DZ1-077, (S)-5-chloro-N2-(4-(4-methylpiperazin-1-yl)phenyl)-N4-((tetrahydrofuran-2-yl)methyl)pyrimidine-2,4-diamine]",IC50,ALK,2.96e-07 M
same,IC50,ACK1 [8]; [11],8.05e-08 M and 8.33e-08 M
same,IC50,"ACK1 [8]; Table 4, 10-dose, 10 μM ATP, read-out: Compound IC50 (M), ACK1",8.33e-08 M
same,% Inhibition at 10 μM (ELISA),ACK1 [7]; [12],94%
same,inhibition at 10 µM,ACK1 [7]; [13],93%
same,IC50,"VCaP cells; Homo sapiens, VCaP",4000 nM
same,IC50,"LNCaP cells; Homo sapiens, LNCaP",1800 nM
CNC(=O)c1ccc(N2C(=S)N(c3ccc(C#N)c(C(F)(F)F)c3)C(=O)C2(C)C)cc1F [Enzalutamide],PSA mRNA levels,PSA,significantly suppressed PSA mRNA levels
same,CRPC patients in whom effective,[9],12 out of 30
same,overall survival advantage,[9],4-6 months
same,AR mRNA levels,AR [3],no significant change
same,endogenous pY88-phosphorylation of H4 in LNCaP cells,pY88-H4,unaffected
CCCS(=O)(=O)Nc1ccc(F)c(C(=O)c2c[nH]c3ncc(-c4ccc(Cl)cc4)cc23)c1F [PLX4032],AR protein levels,AR [2],little effect on AR expression
same,AR mRNA levels,AR [3],no significant change
COc1cc(N2CCC(N3CCN(C)CC3)CC2)ccc1Nc1ncc(Cl)c(Nc2ccccc2S(=O)(=O)C(C)C)n1 [TAE684],ACK1 activation (autophosphorylation) in EGF-treated LAPC4 cells,ACK1 [1],significant reduction in ACK1 activation
"CCOC(=O)C1CCN(c2ccc(Nc3ncc(Cl)c(NCC4CCCO4)n3)cc2)CC1.Cl (centres unmarked) [YL8-047, Ethyl 1-(4-(5-chloro-4-((tetrahydrofuran-2-yl)methylamino)pyrimidin-2-ylamino)phenyl)piperidine-4-carboxylate hydrochloride]",IC50,"ACK1 [8]; Table 1, nM, (RB) = Reaction Biology, replicates listed, read-out: IC50",1.08e-07 M
same,% Inhibition at 10 μM (ELISA),"ACK1 [7]; 10 μM, Table 1, replicate values listed, hydrochloride",67% and 69%
same,inhibition at 10 µM,ACK1 [7]; [13],65%
"O=C(Nc1c(F)cccc1Cl)c1cnc(Nc2ccc(N3CCNCC3)cc2)nc1NCC1CCCO1 (centres unmarked) [YL9-162, N-(2-chloro-6-fluorophenyl)-2-(4-(piperazin-1-yl)phenylamino)-4-((tetrahydrofuran-2-yl)methylamino)pyrimidine-5-carboxamide TFA salt]",IC50,ACK1 [8]; [11],3.32e-08 M
same,% Inhibition at 10 μM (ELISA),"ACK1 [7]; 10 μM, Table 1, replicate values listed, TFA salt",88%
same,inhibition at 10 µM,"ACK1 [7]; read-out: % Inhibition at 10 μM (ELISA), 10 μM, Table 1, replicate values listed",91%
"O=C(O)CCC(=O)N1CCN(c2ccc(Nc3ncc(C(=O)Nc4c(F)cccc4Cl)c(NCC4CCCO4)n3)cc2)CC1 (centres unmarked) [YL9-163, 4-(4-(4-(5-(2-Chloro-6-fluorophenylcarbamoyl)-4-((tetrahydrofuran-2-yl)methylamino)pyrimidin-2-ylamino)phenyl)piperazin-1-yl)-4-oxobutanoic acid]",IC50,"ACK1 [8]; Table 3, 10-dose, 3-fold dilution from 10 μM, 10 μM ATP, read-out: Compound IC50* (M): ACK1",2.84e-08 M
same,% Inhibition at 10 μM (ELISA),ACK1 [7]; [12],93%
same,inhibition at 10 µM,ACK1 [7]; [13],85%
